Tests used:
[1] = Inhibition of DNA-PK (unknown origin); set-up: species or system Homo sapiens
[2] = target: Serine/threonine-protein kinase ATR (Homo sapiens, UniProt Q13535); assay: Inhibition of ATR (unknown origin)
[3] = target: T1, DNA repair protein RAD52 homolog (Homo sapiens, UniProt P43351); assay: Inhibition of FAM-conjugated ssDNA binding to His-tagged wild type RAD52 (unknown origin) expressed in Rosetta2(DE3)/pLysS cells measured after 30 mins by fluorescence polarization assay
T1 sequence (P43351 whole entry): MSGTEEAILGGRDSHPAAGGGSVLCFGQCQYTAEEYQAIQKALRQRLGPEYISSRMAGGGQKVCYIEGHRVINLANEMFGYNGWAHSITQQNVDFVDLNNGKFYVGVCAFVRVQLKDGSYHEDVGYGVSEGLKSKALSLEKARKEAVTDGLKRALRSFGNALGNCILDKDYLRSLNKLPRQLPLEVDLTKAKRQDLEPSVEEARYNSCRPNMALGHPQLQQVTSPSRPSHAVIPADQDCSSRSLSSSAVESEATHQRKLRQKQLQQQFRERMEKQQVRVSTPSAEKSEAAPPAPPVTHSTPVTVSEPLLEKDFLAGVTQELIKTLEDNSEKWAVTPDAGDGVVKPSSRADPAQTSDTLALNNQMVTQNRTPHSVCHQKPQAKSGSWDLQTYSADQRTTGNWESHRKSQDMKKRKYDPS

[4] = target: T2, DNA repair protein RAD52 homolog (Homo sapiens) (UniProt P43351); assay: Inhibition of FAM-conjugated ssDNA binding to His-tagged wild type RAD52 (unknown origin) expressed in Rosetta2(DE3)/pLysS cells measured after 30 mins by high-throughput fluorescence polarization assay relative to control; set-up: concentration or dose not given beside the values
T2 sequence (whole entry): T1 sequence (P43351 whole entry)

[5] = target: Serine-protein kinase ATM (Homo sapiens, UniProt Q13315); assay: Inhibition of human HeLa nuclear extract derived ATM using glutathioneS-transferase-p53N66 as substrate preincubated for 10 mins followed by ATP addition and measured after 1 hr by ELISA
[6] = target: Cyclin-dependent kinase 1 (Homo sapiens, UniProt P06493); assay: Inhibition of CDK1 (unknown origin)
U-87 MG = assay: Antimigratory activity against human U87 cells up to 10 microM incubated for 6 hrs by CellTiter-Glo luminescent cell viability assay relative to control; format: functional, U-87MG ATCC; settings: dose microM <=10
[7] = Antimigratory activity against human U-1242 cells at 3 uM incubated for 1 hr by scratch assay; format: functional, U-1242MG
[8] = target: Voltage-gated inwardly rectifying potassium channel KCNH2 (Homo sapiens, UniProt Q12809); assay: Inhibition of human ERG
[9] = target: NUAK family SNF1-like kinase 1 (Homo sapiens) (UniProt O60285); assay: Inhibition of human NUAK1 expressed in baculovirus expression system at 1 uM relative to control
[10] = target: Serine/threonine-protein kinase mTOR (Homo sapiens, UniProt P42345); assay: Inhibition of mTOR (unknown origin)
[11] = target: Macrophage colony-stimulating factor 1 receptor (Homo sapiens) (UniProt P07333); assay: Inhibition of human CSF1R expressed in baculovirus expression system at 1 uM relative to control
[12] = target: Serine/threonine-protein kinase Sgk1 (Homo sapiens) (UniProt O00141); assay: Inhibition of human SGK expressed in baculovirus expression system at 1 uM relative to control
CAPAN-1 = assay: Growth inhibition of BRCA2-deficient human Capan-1 cells at 10 uM incubated for 6 days with replacement of medium for every 3 days by CCK8 assay relative to control; format: functional; settings: CAPAN-1, 144 h, time 6 day, read-out: GI
BXPC-3 = assay: Growth inhibition of BRCA2-proficient human BxPC3 cells at 10 uM assessed as cell survival incubated for 6 days with replacement of medium for every 3 days by CCK8 assay relative to control; format: functional; settings: BXPC-3, 144 h, time 6 day, read-out: Survival
Wee1-like protein kinase = Wee1-like protein kinase (Homo sapiens, UniProt P30291); assay: Displacement of kinase tracer178 from recombinant WEE1 (unknown origin) incubated for 1 hr by lanthascreen TR-FRET assay
[13] = target: Cyclin-dependent kinase 13 (Homo sapiens, UniProt Q14004); assay: Inhibition of CDK13 (unknown origin)
[14] = target: Cyclin-dependent kinase 12 (Homo sapiens, UniProt Q9NYV4); assay: Inhibition of CDK12 (unknown origin)
[15] = target: T1, DNA repair protein RAD52 homolog; assay: Inhibition of 6His-tagged human RD52 assessed as reduction in RD52 binding to Cy3-dT30-Cy5 ssDNA incubated for 30 mins by FRET assay
BT-20 = assay: Potentiation of veliparib-induced cytotoxicity against human BT20 cells incubated for 7 days by celltiter-Glo assay relative to control; format: functional; settings: time 7 day
HCC38 = assay: Potentiation of veliparib-induced cytotoxicity against human HCC38 cells incubated for 7 days by celltiter-Glo assay relative to control; format: functional; settings: time 7 day
MDA-MB-231 = assay: Potentiation of veliparib-induced cytotoxicity against human MDA-MB-231 cells incubated for 7 days by celltiter-Glo assay relative to control; format: functional; settings: time 7 day
HCC1937 = assay: Potentiation of veliparib-induced cytotoxicity against human HCC1937 cells incubated for 7 days by celltiter-Glo assay relative to control; format: functional; settings: time 7 day
Hs-578T = assay: Potentiation of veliparib-induced cytotoxicity against human Hs578T cells incubated for 7 days by celltiter-Glo assay relative to control; format: functional; settings: time 7 day
BT-549 = assay: Potentiation of veliparib-induced cytotoxicity against human BT549 cells incubated for 7 days by celltiter-Glo assay relative to control; format: functional; settings: time 7 day
MDA-MB-436 = assay: Potentiation of veliparib-induced cytotoxicity against human MDA-MB-436 cells incubated for 7 days by celltiter-Glo assay relative to control; format: functional; settings: time 7 day
MDA-MB-468 = assay: Potentiation of veliparib-induced cytotoxicity against human MDA-MB-468 cells incubated for 7 days by celltiter-Glo assay relative to control; format: functional; settings: time 7 day
SUM149PT = assay: Potentiation of veliparib-induced cytotoxicity against human SUM149PT cells incubated for 7 days by celltiter-Glo assay relative to control; format: functional; settings: time 7 day
[16] = Inhibition of human placental DNA-PK/Ku using EPPLSQEAFADLWKK as substrate in presence of [32P]ATP incubated for 12 mins by scintillation counting method

Serine/threonine-protein kinase ATR, sequence (Q13535 whole entry): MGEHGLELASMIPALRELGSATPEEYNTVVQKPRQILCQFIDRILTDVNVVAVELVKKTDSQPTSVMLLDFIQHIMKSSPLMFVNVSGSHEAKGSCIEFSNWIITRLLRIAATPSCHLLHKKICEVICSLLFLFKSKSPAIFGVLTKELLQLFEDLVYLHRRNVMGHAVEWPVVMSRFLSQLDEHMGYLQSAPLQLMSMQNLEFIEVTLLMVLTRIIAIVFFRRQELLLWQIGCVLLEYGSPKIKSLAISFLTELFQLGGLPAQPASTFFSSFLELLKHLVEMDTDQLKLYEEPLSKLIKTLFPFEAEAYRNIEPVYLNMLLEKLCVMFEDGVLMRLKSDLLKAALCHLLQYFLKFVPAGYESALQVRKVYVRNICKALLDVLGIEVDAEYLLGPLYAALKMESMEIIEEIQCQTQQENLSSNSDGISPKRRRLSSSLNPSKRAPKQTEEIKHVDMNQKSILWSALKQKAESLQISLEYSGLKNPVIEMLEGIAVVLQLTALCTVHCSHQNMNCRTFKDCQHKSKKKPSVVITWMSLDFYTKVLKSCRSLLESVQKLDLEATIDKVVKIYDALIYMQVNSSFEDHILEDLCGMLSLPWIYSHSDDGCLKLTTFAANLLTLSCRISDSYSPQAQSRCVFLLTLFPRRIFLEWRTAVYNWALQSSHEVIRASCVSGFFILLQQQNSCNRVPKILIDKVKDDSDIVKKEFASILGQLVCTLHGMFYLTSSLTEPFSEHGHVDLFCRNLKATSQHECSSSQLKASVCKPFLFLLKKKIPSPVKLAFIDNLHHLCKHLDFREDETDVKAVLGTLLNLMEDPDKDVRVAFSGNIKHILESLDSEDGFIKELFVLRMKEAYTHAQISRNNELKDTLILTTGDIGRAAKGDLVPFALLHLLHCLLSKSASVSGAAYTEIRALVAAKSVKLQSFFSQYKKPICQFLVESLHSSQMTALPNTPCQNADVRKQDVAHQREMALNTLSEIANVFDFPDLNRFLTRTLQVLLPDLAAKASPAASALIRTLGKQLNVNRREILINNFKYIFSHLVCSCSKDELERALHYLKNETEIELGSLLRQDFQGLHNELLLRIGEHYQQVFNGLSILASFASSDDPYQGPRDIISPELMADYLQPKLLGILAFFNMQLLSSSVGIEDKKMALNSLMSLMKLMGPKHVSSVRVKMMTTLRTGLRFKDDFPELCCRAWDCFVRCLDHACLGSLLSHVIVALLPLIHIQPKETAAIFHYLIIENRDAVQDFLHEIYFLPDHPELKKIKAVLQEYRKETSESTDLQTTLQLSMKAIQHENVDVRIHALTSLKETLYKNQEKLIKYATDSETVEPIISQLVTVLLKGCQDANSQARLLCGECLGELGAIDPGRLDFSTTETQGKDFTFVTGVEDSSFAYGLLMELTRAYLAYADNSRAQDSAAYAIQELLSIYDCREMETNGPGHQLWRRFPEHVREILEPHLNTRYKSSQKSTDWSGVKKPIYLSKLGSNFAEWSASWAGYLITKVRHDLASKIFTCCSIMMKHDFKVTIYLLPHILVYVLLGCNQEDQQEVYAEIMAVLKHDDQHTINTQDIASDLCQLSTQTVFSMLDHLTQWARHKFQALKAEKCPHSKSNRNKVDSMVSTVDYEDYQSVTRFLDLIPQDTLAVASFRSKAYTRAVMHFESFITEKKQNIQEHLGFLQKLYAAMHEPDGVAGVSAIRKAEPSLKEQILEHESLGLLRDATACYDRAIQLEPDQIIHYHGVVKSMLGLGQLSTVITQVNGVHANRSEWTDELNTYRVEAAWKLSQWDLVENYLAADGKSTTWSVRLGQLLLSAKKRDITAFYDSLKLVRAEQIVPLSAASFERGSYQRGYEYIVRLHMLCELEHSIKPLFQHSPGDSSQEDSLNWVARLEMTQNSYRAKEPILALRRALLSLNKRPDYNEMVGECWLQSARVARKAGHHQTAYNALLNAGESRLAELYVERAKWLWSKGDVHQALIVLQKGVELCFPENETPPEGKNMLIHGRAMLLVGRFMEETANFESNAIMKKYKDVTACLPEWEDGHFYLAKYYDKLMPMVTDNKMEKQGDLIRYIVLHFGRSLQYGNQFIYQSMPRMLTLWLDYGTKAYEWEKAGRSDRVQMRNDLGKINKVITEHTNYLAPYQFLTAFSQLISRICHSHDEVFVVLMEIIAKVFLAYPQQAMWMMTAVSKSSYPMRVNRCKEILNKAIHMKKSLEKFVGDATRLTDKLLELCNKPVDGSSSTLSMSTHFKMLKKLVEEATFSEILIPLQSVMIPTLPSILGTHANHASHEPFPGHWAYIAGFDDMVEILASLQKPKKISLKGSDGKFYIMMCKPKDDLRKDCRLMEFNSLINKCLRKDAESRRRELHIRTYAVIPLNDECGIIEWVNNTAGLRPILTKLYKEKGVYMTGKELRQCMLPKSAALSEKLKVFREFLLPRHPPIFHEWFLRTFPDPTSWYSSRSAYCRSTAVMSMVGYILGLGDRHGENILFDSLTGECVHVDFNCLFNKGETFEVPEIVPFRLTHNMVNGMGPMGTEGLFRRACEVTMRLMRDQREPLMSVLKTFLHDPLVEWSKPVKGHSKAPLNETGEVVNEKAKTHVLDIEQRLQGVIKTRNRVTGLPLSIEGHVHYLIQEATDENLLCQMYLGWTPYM
Cyclin-dependent kinase 1, sequence (P06493 whole entry): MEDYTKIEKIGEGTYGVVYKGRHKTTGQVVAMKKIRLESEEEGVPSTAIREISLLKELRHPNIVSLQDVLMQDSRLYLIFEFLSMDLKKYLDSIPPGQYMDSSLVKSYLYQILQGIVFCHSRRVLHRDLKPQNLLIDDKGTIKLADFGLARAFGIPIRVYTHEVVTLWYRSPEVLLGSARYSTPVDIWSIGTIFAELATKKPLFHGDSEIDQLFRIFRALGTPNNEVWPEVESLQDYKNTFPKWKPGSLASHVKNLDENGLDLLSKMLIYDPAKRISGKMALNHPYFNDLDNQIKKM
Cyclin-dependent kinase 12, sequence (Q9NYV4 whole entry): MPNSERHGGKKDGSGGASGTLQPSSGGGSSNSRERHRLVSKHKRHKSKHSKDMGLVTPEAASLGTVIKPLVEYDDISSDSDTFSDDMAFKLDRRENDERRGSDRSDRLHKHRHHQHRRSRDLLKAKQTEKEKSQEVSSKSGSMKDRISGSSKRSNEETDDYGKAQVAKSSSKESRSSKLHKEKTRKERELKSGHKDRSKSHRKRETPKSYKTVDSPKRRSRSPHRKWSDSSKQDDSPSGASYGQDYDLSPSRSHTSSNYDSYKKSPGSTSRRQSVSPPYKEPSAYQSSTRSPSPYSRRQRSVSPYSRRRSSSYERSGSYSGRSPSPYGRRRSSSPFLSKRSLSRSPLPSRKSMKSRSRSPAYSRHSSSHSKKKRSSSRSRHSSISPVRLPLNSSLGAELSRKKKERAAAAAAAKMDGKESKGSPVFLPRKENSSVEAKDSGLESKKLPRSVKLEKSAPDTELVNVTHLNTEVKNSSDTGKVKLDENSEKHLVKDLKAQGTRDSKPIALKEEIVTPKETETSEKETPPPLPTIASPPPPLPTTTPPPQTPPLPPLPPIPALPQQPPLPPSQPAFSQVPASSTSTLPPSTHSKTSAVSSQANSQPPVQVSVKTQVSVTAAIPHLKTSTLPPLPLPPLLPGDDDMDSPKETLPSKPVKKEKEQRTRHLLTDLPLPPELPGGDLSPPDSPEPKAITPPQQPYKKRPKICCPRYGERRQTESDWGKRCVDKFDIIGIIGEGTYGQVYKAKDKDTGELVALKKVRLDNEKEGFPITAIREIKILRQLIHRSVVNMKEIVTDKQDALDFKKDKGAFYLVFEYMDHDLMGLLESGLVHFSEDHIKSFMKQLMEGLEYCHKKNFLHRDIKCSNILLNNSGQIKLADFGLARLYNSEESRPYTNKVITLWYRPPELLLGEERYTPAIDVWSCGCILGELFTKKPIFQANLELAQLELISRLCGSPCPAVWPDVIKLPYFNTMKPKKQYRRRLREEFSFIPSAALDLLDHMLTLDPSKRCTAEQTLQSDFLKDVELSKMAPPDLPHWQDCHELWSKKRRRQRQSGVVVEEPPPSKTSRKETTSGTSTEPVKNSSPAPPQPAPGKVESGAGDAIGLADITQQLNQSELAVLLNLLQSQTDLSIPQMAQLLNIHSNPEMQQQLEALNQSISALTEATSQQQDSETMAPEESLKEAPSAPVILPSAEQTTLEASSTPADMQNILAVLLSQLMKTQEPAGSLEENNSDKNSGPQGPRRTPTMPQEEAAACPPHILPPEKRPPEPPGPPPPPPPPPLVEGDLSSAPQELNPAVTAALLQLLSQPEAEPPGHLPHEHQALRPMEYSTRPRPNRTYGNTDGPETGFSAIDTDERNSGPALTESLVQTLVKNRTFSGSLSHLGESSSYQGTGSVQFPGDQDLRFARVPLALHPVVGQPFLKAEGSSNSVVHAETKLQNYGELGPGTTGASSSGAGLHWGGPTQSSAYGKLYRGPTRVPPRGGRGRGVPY
Wee1-like protein kinase, sequence (P30291 whole entry): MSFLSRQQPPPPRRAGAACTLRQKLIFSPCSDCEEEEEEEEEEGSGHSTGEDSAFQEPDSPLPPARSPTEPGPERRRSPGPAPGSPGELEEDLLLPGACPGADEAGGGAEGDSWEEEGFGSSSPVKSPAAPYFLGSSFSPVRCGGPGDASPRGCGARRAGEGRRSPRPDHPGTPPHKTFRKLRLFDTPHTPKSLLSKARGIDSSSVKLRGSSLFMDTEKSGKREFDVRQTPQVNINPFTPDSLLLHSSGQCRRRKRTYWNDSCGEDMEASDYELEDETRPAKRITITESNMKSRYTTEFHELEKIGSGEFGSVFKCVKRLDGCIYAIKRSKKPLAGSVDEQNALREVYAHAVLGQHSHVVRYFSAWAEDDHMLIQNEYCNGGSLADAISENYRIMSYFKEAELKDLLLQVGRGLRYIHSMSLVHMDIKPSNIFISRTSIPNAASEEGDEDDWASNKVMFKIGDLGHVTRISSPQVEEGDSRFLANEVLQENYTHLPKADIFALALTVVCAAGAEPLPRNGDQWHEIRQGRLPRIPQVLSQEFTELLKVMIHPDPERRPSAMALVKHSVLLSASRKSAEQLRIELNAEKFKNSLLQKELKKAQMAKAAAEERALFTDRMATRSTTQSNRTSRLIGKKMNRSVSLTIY

Work on `Cc1cc2ncnn2cc1Nc1ncc2c(n1)n(C1CCOCC1)c(=O)n2C` [AZD-7648] yielded an IC50 [1] of 0.6 nM.

In the case of `Nc1nn2cc(F)cnc2c1C(=O)Nc1cncc(F)c1N1CCC(C(=O)N2CCN(C3COC3)CC2)CC1` [M4344], the Ki [2] is reported as ≤ 0.15 nM.

In the case of `CC(C)Oc1c(-c2ccco2)c(=O)c1=O`, the IC50 [3] is reported as < 5000 nM and the inhibition [4] is reported as > 60%.

In the case of `Cc1cc2c(C(C)C)c(O)c(O)c(C=O)c2c(O)c1-c1c(C)cc2c(C(C)C)c(O)c(O)c(C=O)c2c1O` [GOSSYPOL], the IC50 [3] is reported as < 5000 nM and the inhibition [4] is reported as > 60%.

In the case of `O=c1cc(-c2cccc3c2Sc2ccccc2S3)oc(N2CCCCC2)c1`, the IC50 [5] is reported as 2960 nM.

For `CCN(CC)CCOc1ccc(Nc2ncc3cc(-c4c(Cl)cccc4Cl)c(=O)n(C)c3n2)cc1` [PD-0166285], the IC50 [6] was < 100 nM.

With `C[C@@H]1CN(CC(=O)Nc2ccc3c(c2)Cc2cccc(-c4cc(=O)cc(N5CCOCC5)o4)c2S3)C[C@H](C)O1` the Activity (U-87 MG) was >70% and the Activity [7] was >50%.

With `Oc1ccc(N=Cc2ccc[nH]2)cc1N=Cc1ccc[nH]1` the IC50 [3] was < 5000 nM and the inhibition [4] was > 60%.

In the case of `Cn1cccc1C=CC(=O)O`, the IC50 [3] is reported as < 5000 nM and the inhibition [4] is reported as > 60%.

In the case of `CC(C)n1c(=O)n(C)c2cnc3cc(F)c(-c4ccc(OCCCN5CCCCC5)nc4)cc3c21` [AZD-1390], the IC50 [8] is reported as 6550 nM, the inhibition [9] is reported as > 50% and the IC50 [2] is reported as ≥ 1000 nM. The IC50 [10] was ≥ 1000 nM, the IC50 [1] was ≥ 1000 nM and the inhibition [11] was > 50%. For the same molecule, the inhibition [12] was > 50%.

In the case of `O=C(O)c1ccc(/C=N/c2nc[nH]n2)cc1`, the IC50 [3] is reported as < 5000 nM and the inhibition [4] is reported as > 60%.

In the case of `Cc1ccc2[nH]c(CCc3cccc(NC(=O)C4CCCN(S(=O)(=O)N5CCCC5)C4)c3)nc2c1` (stereo not given), the inhibition of growth at 10 µM (CAPAN-1) is reported as 50% and the viability at 10 µM (BXPC-3) is reported as > 90%.

For `NC(Cc1cc(O)c(O)cc1O)C(=O)O` (stereo not given), the IC50 [3] was 1100 nM and the inhibition [4] was > 60%.

Molecule `C=CCn1c(=O)c2cnc(Nc3ccc(N4CCN(C(=O)OC)CC4)cc3)nc2n1-c1cccc(C(C)(C)O)n1` has an IC50 (Wee1-like protein kinase) of 2.8 nM.

For `Cn1cccc1C=C1C(=O)NC(=S)NC1=O`, the IC50 [3] was < 5000 nM and the inhibition [4] was > 60%.

Work on `CN(C)C/C=C/C(=O)Nc1ccc(C(=O)Nc2cccc(Nc3ncc(Cl)c(-c4c[nH]c5ccccc45)n3)c2)cc1` yielded an IC50 [13] of 225 nM and an IC50 [14] of 864 nM.

In the case of `O=C(O)C1=CC(=C(c2ccc(O)c(C(=O)O)c2)c2ccc(O)c(C(=O)O)c2)C=CC1=O` [AURINTRICARBOXYLIC ACID], the IC50 [3] is reported as < 5000 nM and the inhibition [4] is reported as > 60%.

For `O=C(O[C@@H]1O[C@@H]2COC(=O)c3cc(O)c(O)c(O)c3-c3c(cc(O)c(O)c3O)C(=O)O[C@H]2[C@H](O)[C@H]1O)c1cc(O)c(O)c(O)c1` [STRICTININ], the IC50 [15] was 1500 nM.

For `CCc1cnn2c(NCc3ccc[n+]([O-])c3)cc(N3CCCC[C@H]3CCO)nc12` [DINACICLIB], the “fold change (FC)” value (BT-20) was 2.5, the “fold change (FC)” value (HCC38) was 2.5 and the “fold change (FC)” value (MDA-MB-231) was 2.5. The “fold change (FC)” value (HCC1937) was 2.5, the “fold change (FC)” value (Hs-578T) was 2.5 and the “fold change (FC)” value (BT-549) was 2.5. The “fold change (FC)” value (MDA-MB-436) was 2.5, the “fold change (FC)” value (MDA-MB-468) was 2.5 and the “fold change (FC)” value (SUM149PT) was 2.5.

In the case of `O=C1NC(=S)NC(=O)C1=C/C=C/c1ccco1`, the IC50 [3] is reported as < 5000 nM and the inhibition [4] is reported as > 60%.

With `O=C1C=CC(=NOS(=O)(=O)c2cc(Cl)ccc2Cl)C=C1` the IC50 [3] was < 5000 nM and the inhibition [4] was > 60%.

With `COc1ccc([C@@H](O)c2cc(-c3ncnc4cc(N5CCOCC5)ccc34)c(F)cc2Cl)nn1` [NEDISERTIB] the IC50 [1] was ≤ 3 nM.

`CCc1[nH]c(/C=C2\C(=O)Nc3ccc(S(=O)(=O)Nc4ccccc4)cc32)c(CC)c1CCC(=O)O` gave an IC50 [16] of 130 nM.

— ChEMBL document CHEMBL4765462, “Synthetic Lethality through the Lens of Medicinal Chemistry” (J Med Chem, 2020)
